Test results taken from paper PMC3004258, “Structure of the inhibitor complex of old yellow enzyme from Trypanosoma cruzi” (Journal of Synchrotron Radiation, 2010).

Molecular target: T1, TcOYE (old yellow enzyme from Trypanosoma cruzi; PGF2alpha synthase) (Trypanosoma cruzi, UniProt Q8I6L9)
T1 construct: gene TcPGFS; recombinant, overexpressed in E. coli and purified; 2 molecules per asymmetric unit; residues up to at least 379
T1 sequence (Q8I6L9 1-379): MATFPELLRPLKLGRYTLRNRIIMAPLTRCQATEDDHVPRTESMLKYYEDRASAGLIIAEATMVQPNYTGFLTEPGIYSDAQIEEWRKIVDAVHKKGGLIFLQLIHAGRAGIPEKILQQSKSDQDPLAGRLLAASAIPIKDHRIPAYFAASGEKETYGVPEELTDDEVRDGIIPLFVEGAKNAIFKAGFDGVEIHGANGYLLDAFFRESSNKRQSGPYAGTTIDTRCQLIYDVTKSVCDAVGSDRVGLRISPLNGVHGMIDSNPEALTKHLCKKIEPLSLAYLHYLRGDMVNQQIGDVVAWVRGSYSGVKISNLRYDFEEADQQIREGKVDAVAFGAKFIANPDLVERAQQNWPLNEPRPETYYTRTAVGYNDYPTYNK
Assay: X-ray crystallography, […] Å
Assay type: binding
Conditions: TcOYE/FMN binary complex; prosthetic group at C-terminal ends of barrel strands

## Cc1cc2nc3c(=O)[nH]c(=O)nc-3n(C[C@H](O)[C@H](O)[C@H](O)COP(=O)(O)O)c2cc1C [FMN]
  X-ray crystallography, 1.7 Å: The structure of TcOYE/FMN binary complex was determined by molecular replacement methods
